Data set [1] has as its system Saos-2 cells. Kind of data set: MTT cell viability / cytotoxicity assay, Saos-2 cells. Type of data set: cell-based. Particulars: MTT assay and clonogenic assay. On the procedure:
Cells were plated in flat-bottom 96-well plates at a density of 3 × 10^3 cells per well. After 12 h of cell attachment, the cell culture medium was replaced with 100 μL of pre-warmed media containing the compounds at different concentrations. After 24–72 h of incubation, cell proliferation was assessed by the MTT assay. A fresh mixture of 10 μL of thiazolyl blue tetrazolium bromide (MTT) and 90 μL of medium were freshly added to each well. After incubation for 4 h, the medium was gently removed. The formazan crystals that formed were dissolved in 110 μL of DMSO, and the absorbance was subsequently measured with a plate reader (Perkin Elmer) at 490 nm. EC50 values were calculated using Origin software. To measure the cytotoxicity of 2, HeLa cells, HUVECs, Saos-2 cells and CCC-HEH-2 cells were incubated with 100 μL of 1–500 μM 2 for 24 h, and then, cell viability was determined. To measure the cytotoxicity of TCO-Dox or Dox, HeLa cells, HUVECs, Saos-2 cells or CCC-HEH-2 cells were incubated with 200 μL of 0.001–10 μM TCO-Dox or Dox for 72 h, and the cell viability was determined. To determine the cytotoxicity of activated Dox, HeLa cells, HUVECs, Saos-2 cells or CCC-HEH-2 cells were pre-incubated with 100 μL of 500 μM 2 for 6 h, and then, 2 was removed and 200 μL of 0.0001–10 μM TCO-Dox was added for 72 h of incubation, and cell viability was determined. […]
Prodrug activation efficacy in cells: Cells were plated on flat bottom 96-well plates at a density of 3x10^3 cells per well. After 12 h attachment, cells were incubated with 100 µL 500 µM of 2 for 6 h before removing 2 and the addition of 200 µL 0.0001-10 µM of TCO-Dox. Cells were further incubated for 72 h before measuring the viability by the MTT […]
Clonogenic assay of cells in vitro: Clonogenic assay was performed according to the standard protocol.6 2×10^5 attached cells were treated with 500 µM of 2 for 6 h in culture dishes. Cells were then detached, re-suspended in cultural medium and counted accurately. The cell suspension was diluted into the desired seeding concentration and cells were seeded in 6-well plates at a density of 200 cells per well for CCC-HEH-2 and 400 cells per well for HeLa, Saos-2 and HUVECs. After incubation for 10 days, the cultural medium was removed and cells were rinsed carefully with PBS. 2 mL of a mixture of 6.0% (vol/vol) glutaraldehyde and 0.5% (wt/vol) crystal violet was added and kept for 30 min.
The glutaraldehyde crystal violet mixture was removed carefully. The colonies were rinsed with water and dried in normal air at room temperature. The number of the colonies was counted using a stereomicroscope.
When untreated cells are plated as a single-cell suspension at low densities, they will grow to colonies. The plating efficiency (PE) is the ratio of the number of colonies to the […]
(Supplementary Equation 1)
The number of colonies that arise after treatment of cells, expressed in terms of PE, is called the surviving fraction (SF): […]
Background: Formazan colour is commonly taken as a measure of viable cells.

The nature of data set [2]: Stability in human serum (UPLC-MS/MS). Particulars: 10 μM in human serum. The format is in vitro ADME. On the procedure: (Sigma, St. Louis, MO). Then, 9 µL Na125I (2.4 mCi) (Beijing Atom High Tech, Beijing, China) was added and the mixture was kept at room temperature for 1 h until the labeling ratio reached to more than 95%. For SPECT/CT imaging, a mixture of 50 mg kg-1 2 and 0.875 mg kg-1 125I labelled 2 (700 µCi) were intravenously administrated to investigate the distribution of 2/3 and 0.875 mg kg-1 125I labelled 2 (700 µCi) was administrated as a control. After anesthetization with 2% isoflurane in oxygen, SPECT and helical CT scans of the mice were performed at 2, 5, 7 and 25 h on a NanoScan SPECT/CT imaging system (Mediso, Budapest, Hungary).
UPLC-MS/MS analyses: UPLC-MS/MS metabolomic analyses were performed using a Triple Quadrupole Liquid Chromatograph Mass Spectrometer (LCMS 8050, Shimadzu) in multiple reaction-monitoring mode (MRM). Data acquisition and processing were performed using LabSolutions version 5 software. Measurements were carried out at 40°C. […]
Plasmatic stability of compound 2 and TCO-Dox: To evaluate the stability of 2 and TCO-Dox under physiologically relevant conditions, compounds were incubated in human serum and the amount of the remaining intact compound (the corresponding dephosphorylated 3 was detected as well) was determined by UPLC-MS/MS. […] After centrifugation at 1559 g for 7 min and filtration, 2 µL of the supernatant was analyzed by UPLC-MS/MS (n=5).

On to `Cc1nnc(-c2ccc(CC(=O)NCCCCC(NC(=O)Cc3ccc4ccccc4c3)C(=O)NC(Cc3ccc(OP(=O)(O)O)cc3)C(=O)NC(Cc3ccccc3)C(=O)O)cc2)nn1` (centres unmarked) [compound 2, NapK(Tz)YpF], for which the “cytotoxicity of 2 against Saos-2 cells” value in data set [1] is listed as “toxic to Saos-2 cells to some extent”. Moreover, the stability in serum/plasma entry in data set [2] is on record as “partially transformed to the dephosphorylated product 3 in plasma”.

Values taken from article PMC6261997, “Synergistic enzymatic and bioorthogonal reactions for selective prodrug activation in living systems” (Nature Communications, 2018).
